# In the oligonucleotide strings, read from the 5' end, every base follows the letter of its sugar. An asterisk marks phosphorothioate; unmarked linkages are phosphodiester. Other units and linkages are bracketed, terminal groups are in braces. A string of capitals states the bases alone. e = 2'-O-(2-methoxyethyl) (MOE); [5mC] = 5-methylcytosine; d = 2'-deoxy (DNA)
# Experiments:
# Type in all cases: cell-based
# [1] = tested on: mouse p38α mRNA; assay: Mouse p38α mRNA levels in bEND.3 cells, quantitative real-time PCR; parameters: % Inhib. mouse p38α: concentration or dose not given beside the values; conditions: bEND.3 cells, mRNA by quantitative real-time PCR, average of two experiments
# How it was run: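 Mouse bEND.3 cells, antisense oligonucleotide-treated; p38α mRNA measured by one-step real-time RT-PCR (RT 30 min at 48 °C, then 40 cycles) with a FAM/TAMRA probe. Levels normalized to GAPDH or RiboGreen total RNA, and percent inhibition derived from standard curves of untreated-control mRNA.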
# [2] = tested on: rat p38α mRNA; assay: Rat p38α mRNA levels in NR-8383 cells, quantitative real-time PCR; conditions: 300 nM oligonucleotide with FuGENE 6, 24 hours, mRNA by quantitative real-time PCR, average of two experiments
# [3] = tested on: human p38α mRNA; assay: Inhibition of human p38α mRNA expression in Jurkat cells, Northern blot
# Experimental: (§1) The human Jurkat T-cell line (American Type Culture Collection, Manassas, Va.) was maintained in RPMI 1640 growth media supplemented with 10% fetal bovine serum (FBS; Hyclone, Logan, Utah). HUVEC cells (Clonetics, San Diego, Calif.) were cultivated in endothelial basal media supplemented with 10% FBS (Hyclone, Logan, Utah).
# Jurkat cells were grown to approximately 75% confluency and resuspended in culture media at a density of 1×10^7 cells/ml. A total of 3.6×10^6 cells were employed for each treatment by combining 360 μl of cell suspension with oligonucleotide at the indicated concentrations to reach a final volume of 400 μl. Cells were then transferred to an electroporation cuvette and electroporated using an Electrocell Manipulator 600 instrument (Biotechnologies and Experimental Research, Inc.) employing 150 V, 1000 μF, at 13 Ω. Electroporated cells were then transferred to conical tubes containing 5 ml of culture media, mixed by inversion, and plated onto 10 cm culture dishes.
# (§2) Total mRNA was isolated using the RNEASY7 Mini Kit (Qiagen, Valencia, Calif.; similar kits from other manufacturers may also be used), separated on a 1% agarose gel, transferred to HYBOND™-N+ membrane (Amersham Pharmacia Biotech, Piscataway, N.J.), a positively charged nylon membrane, and probed. p38 MAPK probes were made using the Prime-A-Gene7 kit (Promega Corporation, Madison, Wis.), a random primer labeling kit, using mouse p38α or p38β cDNA as a template. A glyceraldehyde 3-phosphate dehydrogenase (G3PDH) probe was purchased from Clontech (Palo Alto, Calif.), Catalog Number 9805-1. The fragments were purified from low-melting temperature agarose, as described in Maniatis, T., et al., Molecular Cloning: A Laboratory Manual, 1989. The G3PDH probe was labeled with REDIVUE™ ^32P-dCTP (Amersham Pharmacia Biotech, Piscataway, N.J.) and Strip-EZ labelling kit (Ambion, Austin, Tex.). mRNA was quantitated by a PhosphoImager (Molecular Dynamics, Sunnyvale, Calif.).
# Jurkat cells were grown and treated as described above except the concentration of oligonucleotide was varied as indicated in Table 3. […] Maximum inhibition was approximately 70% with 16500 (SEQ ID NO 17).
# [4] = tested on: human p38β mRNA; assay: Inhibition of human p38β mRNA expression in HUVEC cells, Northern blot; conditions: 100 nM oligonucleotide in 10 μg/ml LIPOFECTIN, four hours, Northern blot
# Experimental: as §1
# HUVEC cells were allowed to reach 75% confluency prior to use. The cells were washed twice with warm (37° C.) OPTI-MEM™ (Life Technologies). The cells were incubated in the presence of the appropriate culture medium, without the growth factors added, and the oligonucleotide formulated in LIPOFECTIN7 (Life Technologies), a 1:1 (w/w) liposome formulation of the cationic lipid N-[1-(2,3-dioleyloxy)propyl]-n,n,n-trimethylammonium chloride (DOTMA), and dioleoyl phosphotidylethanolamine (DOPE) in membrane filtered water. HUVEC cells were treated with 100 nM oligonucleotide in 10 μg/ml LIPOFECTIN7. Treatment was for four hours.
# as §2
# Every oligonucleotide tested gave at least 50% inhibition.
# Oligonucleotides 17893 (SEQ ID NO. 27), 17899 (SEQ ID NO:33), 17904 (SEQ ID NO. 38), and 17907 (SEQ ID NO. 41) were chosen for dose response studies. HUVEC cells were cultured and treated as described in Example 2 except that the oligonucleotide concentration was varied as shown in Table 6. The Lipofectin7/Oligo ratio was maintained at 3 μg Lipofectin7/100 nM oligo, per ml. mRNA was measured by Northern blot as described in Example 2.
# [5] = Jurkat cells electroporated with 10 μM oligonucleotide, Northern blot
substance,measurement,setting,value
"320170 (antisense TGCTGGCTATACACAGACAC; sugars from the 5' end e5 d10 e5, all phosphorothioate, methylation of C not given here) [compound 320170]",% Inhib. mouse p38α,[1],83%
same,% Inhib. rat p38α,[2],55%
"320171 (antisense TGGAAAACTGTTTTGTCAAA; sugars from the 5' end e5 d10 e5, all phosphorothioate, methylation of C not given here) [compound 320171]",% Inhib. mouse p38α,[1],35%
same,% Inhib. rat p38α,[2],2%
"320172 (antisense ACTCTCGCGAGAACAGCTCC; sugars from the 5' end e5 d10 e5, all phosphorothioate, methylation of C not given here) [compound 320172]",% Inhib. mouse p38α,[1],39%
same,% Inhib. rat p38α,[2],0%
"320173 (antisense TCCCACAGGCAGCGGCCGGG; sugars from the 5' end e5 d10 e5, all phosphorothioate, methylation of C not given here) [compound 320173]",% Inhib. mouse p38α,[1],160%
same,% Inhib. rat p38α,[2],250%
"320174 (antisense CCCGCTTGGGCTCCAGTGGC; sugars from the 5' end e5 d10 e5, all phosphorothioate, methylation of C not given here) [compound 320174]",% Inhib. mouse p38α,[1],62%
same,% Inhib. rat p38α,[2],29%
AACCAGGTGCTCAGGACTCC (antisense eA*eA*e[5mC]*e[5mC]*eA*eG*dG*dT*dG*dC*dT*dC*dA*dG*eG*eA*e[5mC]*eT*e[5mC]*e[5mC]) [ISIS 16500],% mRNA EXPRESSION,[3]; [5],63%
same,% mRNA EXPRESSION,"[3]; Jurkat cells, dose 2.5 nM",82%
same,% mRNA Inhibition,"[3]; Jurkat cells, dose 2.5 nM",18%
same,% mRNA EXPRESSION,"[3]; Jurkat cells, dose 5 nM",71%
same,% mRNA Inhibition,"[3]; Jurkat cells, dose 5 nM",29%
same,% mRNA EXPRESSION,"[3]; Jurkat cells, dose 10 nM",49%
same,% mRNA Inhibition,"[3]; Jurkat cells, dose 10 nM",51%
same,% mRNA EXPRESSION,"[3]; Jurkat cells, dose 20 nM",31%
same,% mRNA Inhibition,"[3]; Jurkat cells, dose 20 nM",69%
same,Maximum inhibition of p38α mRNA,"[3]; Jurkat cells, dose response",approximately 70%
AACGCTCTCATCATATGGCT (chemistry not fully specified) [ISIS 17903],% mRNA EXPRESSION,[4],11%
same,% mRNA Inhibition,[4],89%
AACGTGCTCGTCAAGTGCCA (chemistry not fully specified) [ISIS 17898],% mRNA EXPRESSION,[4],49%
same,% mRNA Inhibition,[4],51%
AAGACCGGGCCCGGAATTCC (antisense eA*eA*eG*eA*e[5mC]*e[5mC]*dG*dG*dG*dC*dC*dC*dG*dG*eA*eA*eT*eT*e[5mC]*e[5mC]) [ISIS 16486],% mRNA EXPRESSION,[3]; [5],212%
ACACATGCACACACACTAAC (antisense eA*e[5mC]*eA*e[5mC]*eA*eT*dG*dC*dA*dC*dA*dC*dA*dC*eA*e[5mC]*eT*eA*eA*e[5mC]) [ISIS 16505],% mRNA EXPRESSION,[3]; [5],93%
same,% mRNA Inhibition,[3]; [5],7%
ACACATGTTTGTGCATGCAT (antisense; chemistry not fully specified) [ISIS 17906],% mRNA EXPRESSION,[4],22%
same,% mRNA Inhibition,[4],78%
ACTGTTTGGTTGTAATGCAT (antisense; chemistry not fully specified) [ISIS 17900],% mRNA EXPRESSION,[4],40%
same,% mRNA Inhibition,[4],60%
ACTTGACGATGTTGTTCAGG (antisense; chemistry not fully specified) [ISIS 17897],% mRNA EXPRESSION,[4],25%
same,% mRNA Inhibition,[4],75%
AGGCACTTGAATAATATTTG (eA*eG*eG*e[5mC]*eA*e[5mC]*dT*dT*dG*dA*dA*dT*dA*dA*eT*eA*eT*eT*eT*eG; antisense) [ISIS 16503],% mRNA EXPRESSION,[3]; [5],65%
same,% mRNA EXPRESSION,"[3]; Jurkat cells, dose 2.5 nM",74%
same,% mRNA Inhibition,"[3]; Jurkat cells, dose 2.5 nM",26%
same,% mRNA EXPRESSION,"[3]; Jurkat cells, dose 5 nM",61%
same,% mRNA Inhibition,"[3]; Jurkat cells, dose 5 nM",39%
same,% mRNA EXPRESSION,"[3]; Jurkat cells, dose 10 nM",53%
same,% mRNA Inhibition,"[3]; Jurkat cells, dose 10 nM",47%
same,% mRNA EXPRESSION,"[3]; Jurkat cells, dose 20 nM",41%
same,% mRNA Inhibition,"[3]; Jurkat cells, dose 20 nM",59%
AGTGCACGCTCATCCACACG (chemistry not fully specified) [ISIS 17909],% mRNA EXPRESSION,[4],13%
same,% mRNA Inhibition,[4],87%

# Reference: patent US20040171566A1, “Antisense modulation of p38 mitogen activated protein kinase expression” (priority 1999, published 2004)
